Measurements published in patent US20220331301A1, “CYSTIC FIBROSIS TRANSMEMBRANE CONDUCTANCE REGULATOR MODULATORS FOR TREATING AUTOSOMAL RESESSIVE POLYCYSTIC KIDNEY DISEASE” (The Johns Hopkins University, priority 2021, published 2022).

Tested on: Pkhd1^del4/del4 cholangiocytes
Experiment: Cyst growth of cholangiocytes on matrigel (3D culture)
Assay type: cell-based, mice
Conditions: for cyst growth / cyst area: 10 μM continuous, cysts induced with Forskolin (10 μM)
Procedure: Note that the cysts treated with forskolin (for) grew larger. […] Note that the cysts treated with forskolin (for) grew larger. […] FIG. 3C for 1 wk. […] Cysts were induced with Forskolin (10 μM) for 24 hours prior to study. Columns represent means±standard error (SEM). **P<0.01 ****P<0.0001 (for all graphs). Statistical analysis was performed using an unpaired two-tailed Student's t-test;
Note that the cysts treated with forskolin (for) grew larger. […] Note that the cysts treated with forskolin (for) grew larger. […] FIG. 4C for 1 wk. […] Cysts were induced with Forskolin (10 μM) for 24 hours prior to study. Columns represent means±standard error (SEM). **P<0.01 ****P<0.0001 (for all graphs). Statistical analysis was performed using an unpaired two-tailed Student's t-test;
But cysts do develop from the Pkhd1del4/del4 cholangiocytes. Cyst growth is accelerated by forskolin (for). […] Yanda et al., 2018. The dosage of VX-809 injected was lower than the human pediatric dose, which is 500 mg of Lumacaftor per day; the adult dose is 800 mg/day.
(Methods and cells provided by the Yale O'Brian Center) To create the cholangiocyte cultures PKhd1del/4/del4, Garcia-Gonzalez et al., 2007, animals were crossed with mice transgenic for the Sv40 large T Antigen (strain name SV40 T-antigen JAX strain #002233). Segments of intrahepatic bile ducts were microdissected from livers perfused via the portal vein with molten agarose containing toluidine blue to mark the veins. The liver parenchyma was stripped until the biliary tree was identified and the bile duct units were seeded onto rat type I collagen coated plates. Cells were cultured under non-permissive conditions in the following medium: DMEM/F12 with 5% fetal bovine serum, 10 μL/mL insulin-transferrin selenium, 3.4 μg/mL triiodothyronine, 50,000 U penicillin/streptomycin under humidified conditions at 37° C. in 5% CO2. After one week, the cells were cultured under permissive conditions in the presence of 10 U of interferon-γ at 33° C. in 5% CO2. When confluent, cells were passaged by digesting the collagen slab below the cells (60 min; 37° C.; DMEM/F12 with 2 mg/mL dispase and 1 mg/mL collagenase type 11), then washed twice in PBS and plated onto collagen coated support systems. Clonal cell lines were generated by single cell isolation. Cells were differentiated for 10 days at 37° C. without interferon-γ for experimental use.

**Q.** How did the “cyst growth in 3D culture” value (Pkhd1del4/del4 cholangiocytes, time not stated) turn out when `CCOc1ccc2c(-c3cccc(F)c3)nn(CC(=O)N(C)c3ccc4nc(C)oc4c3)c(=O)c2c1` [FDL 169] was run?
**A.** The value was “reduces growth”.

**Q.** What about the “cyst growth / cyst area” value (monitored for 1 week) of the same molecule?
**A.** The value was “reduced cyst growth in the presence of forskolin”.

**Q.** And the “cyst growth / cyst area” value (monitored for 48 hrs)?
**A.** The value was “reduced cyst growth in the presence of forskolin”.
